Results taken from the supplement of paper PMC10307832.

How the values were obtained:
Assay in all cases: relative viability (nuclei count vs DMSO), 5 days (fraction); higher = more cells survive
Bortezomib + Phenformin = compound: CC(C)C[C@H](NC(=O)[C@H](Cc1ccccc1)NC(=O)c1cnccn1)B(O)O [Bortezomib] + N=C(N)NC(=N)NCCc1ccccc1 [Phenformin] (partner 250 µM)
Outline: (§1)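 Relative viability was taken as the ratio of nuclei in treated wells to nuclei in vehicle wells. Lung cancer cell lines in 1536-well plates received compounds by pin tool one day after seeding, either one drug alone or a fixed anchor-drug dose plus five library-drug doses (not always all listed) in √10 steps. Nuclei were counted on 4× images after 5 days of treatment, and values are medians of duplicate plates.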

Bortezomib + Olaparib = compound: CC(C)C[C@H](NC(=O)[C@H](Cc1ccccc1)NC(=O)c1cnccn1)B(O)O [Bortezomib] + O=C(c1cc(Cc2n[nH]c(=O)c3ccccc23)ccc1F)N1CCN(C(=O)C2CC2)CC1 [Olaparib] (partner 8 µM)
Outline: as §1

[1] = compound: CC1=CC(=NN1)NC2=CC(=NC(=N2)/C=C/C3=CC=CC=C3)N4CCN(CC4)C + COc1cc2c(Oc3ccc(NC(=O)C4(C(=O)Nc5ccc(F)cc5)CC4)cc3F)ccnc2cc1OCCCN1CCOCC1 [Foretinib] (partner 0.25 µM)
Outline: as §1

[2] = compound: CC1=CC(=NN1)NC2=CC(=NC(=N2)/C=C/C3=CC=CC=C3)N4CCN(CC4)C + Nc1ncn([C@H]2C[C@H](O)[C@@H](CO)O2)c(=O)n1 [Decitabine] (partner 2 µM)
Outline: as §1

Cell Line	relative viability (Bortezomib + Phenformin; first compound 0.0002 µM)	relative viability (Bortezomib + Phenformin; first compound 0.000632 µM)	relative viability (Bortezomib + Phenformin; first compound 0.002 µM)	relative viability (Bortezomib + Phenformin; first compound 0.006325 µM)	relative viability (Bortezomib + Phenformin; first compound 0.02 µM)	relative viability (Bortezomib + Olaparib; first compound 0.0002 µM)	relative viability (Bortezomib + Olaparib; first compound 0.000632 µM)	relative viability (Bortezomib + Olaparib; first compound 0.006325 µM)	relative viability (Bortezomib + Olaparib; first compound 0.02 µM)	relative viability ([1]; first compound 0.08 µM)	relative viability ([1]; first compound 0.253 µM)	relative viability ([1]; first compound 0.8 µM)	relative viability ([1]; first compound 2.53 µM)	relative viability ([1]; first compound 8 µM)	relative viability ([2]; first compound 0.08 µM)	relative viability ([2]; first compound 0.253 µM)	relative viability ([2]; first compound 0.8 µM)	relative viability ([2]; first compound 2.53 µM)	relative viability ([2]; first compound 8 µM)	relative viability (Bortezomib + Olaparib; first compound 0.002 µM)
LXF-289	0.556	0.507	0.483	0.076	0.0724	1.01	1.03	0.0822	0.0818	0.996	1.02	0.873	0.812	0.194	0.371	0.383	0.324	0.288	0.248	–
NCI-H23	0.79	0.652	0.785	0.277	0.114	0.362	–	0.0989	0.0819	0.699	0.987	0.712	0.256	0.147	0.302	0.326	0.29	0.177	0.141	0.247
NCI-H322M	0.807	–	0.748	0.295	0.322	0.755	0.704	0.586	0.452	0.947	1.03	0.934	0.363	0.239	0.82	0.719	0.675	0.587	0.298	0.825
NCI-H358	0.316	0.305	0.354	0.0576	0.0696	0.773	0.541	0.0684	0.076	0.705	0.886	0.307	0.145	0.0554	0.227	0.188	0.184	0.0835	0.0684	0.46
NCI-H441	0.969	0.732	0.514	0.166	0.189	0.446	0.601	0.11	0.102	1.16	0.649	1.18	0.384	0.177	0.233	0.222	0.223	0.172	0.12	0.165
NCI-H460	0.347	0.526	0.554	0.0373	0.0212	0.355	0.422	0.0694	0.0397	1	1.1	1.04	0.477	0.0228	0.531	0.522	0.466	0.0534	0.0287	0.392
NCI-H520	0.599	0.669	0.422	0.213	0.17	0.333	0.334	0.117	0.116	0.669	0.843	0.788	0.534	0.185	0.382	0.542	0.501	0.191	0.14	0.218
NCI-H596	0.737	0.474	0.828	0.267	0.211	0.723	0.709	0.186	0.187	0.78	0.937	0.633	0.654	0.165	1.17	1.01	0.889	0.659	0.364	0.445
NCI-H647	0.479	0.444	0.267	0.0466	0.0232	0.518	0.374	0.0277	0.0271	1.14	1.23	1.27	0.8	0.104	0.32	0.429	0.36	0.121	0.122	0.148
NCI-H661	0.286	0.292	0.302	0.239	0.204	0.745	0.69	0.376	0.213	0.997	–	1.01	0.576	0.362	0.551	0.529	0.524	0.302	0.249	0.78
NCI-H727	0.542	0.475	0.548	0.301	0.178	0.673	0.968	0.803	0.176	0.823	0.916	0.679	0.512	0.272	0.515	0.699	0.882	0.793	0.412	0.681
NCI-H838	0.6	0.526	0.64	0.127	0.115	0.739	0.789	0.124	0.0906	0.99	1.14	0.965	0.798	0.131	0.487	0.416	0.384	0.208	0.141	0.792
NCI-H1355	0.446	0.414	0.493	0.381	0.176	0.733	0.725	0.118	0.107	0.879	1.05	0.985	0.743	0.18	0.305	0.346	0.351	0.356	0.201	0.666
NCI-H1395	0.477	0.435	0.446	0.361	0.27	0.474	0.45	0.336	0.328	1.11	1.11	0.93	0.663	0.347	0.7	0.771	0.708	0.514	0.291	0.361
NCI-H1437	0.385	0.28	0.278	0.129	0.133	0.586	0.627	0.199	0.154	1.19	1.31	1.3	1.25	0.474	0.523	0.583	0.555	0.499	0.255	0.553
NCI-H1650	0.385	0.303	0.139	0.16	0.149	0.607	0.757	0.12	0.157	1.07	1.4	1.33	0.153	0.133	0.333	0.454	0.389	0.297	0.113	0.165
